Reference: US8486456B2, “Itraconazole compositions with improved bioavailability” (Abbott GmbH & Co., KG, priority 2005, dated 2013)

Columns and labels:
[1] = aqueous media; cited from earlier work
[2] = Thermal stability of itraconazole; format: physicochemical; details: temperatures up to 300° C.

CCC(C)n1ncn(-c2ccc(N3CCN(c4ccc(OCC5COC(Cn6cncn6)(c6ccc(Cl)cc6Cl)O5)cc4)CC3)cc2)c1=O (single isomer, unassigned; (+)) [itraconazole, (+)-cis-4-[4-[4-[4-[[2-(2,4-dichlorophenyl)-2-(1H-1,2,4-triazol-1-yl-methyl)-1,3-dioxolan-4-yl]methoxy]phenyl]-1-piperazinyl]phenyl]-2,4-dihydro-2-(1-methylpropyl)-3H-1,2,4-triazol-3-one]
solubility [1]: practically insoluble
thermal stability [2]: thermally very stable
